Experimental data: patent US12522614B2, “Topical phosphoinositide 3-kinase inhibitors” (VENTHERA, INC., priority 2019, dated 2026)
“Also recorded” adds a separate entry of the source.

Key:
[1] = Six-month stability study of topical gel formulations including Compound 1.002; type: physicochemical; conditions: 40° C./75% RH
Experimental: Unless otherwise indicated, a HPLC method was used to determine the content of Compound 1.002 and impurities; ASTM D 1544 was used as the standard test method for color of gel formulations; a gas chromatographic method was used to determine the content of oleic acid; and Brookfield viscometer was used to measure viscosity (cP) of gel formulations.
(§1) The gel formulation in HPLC glass vials was subjected to stability study at 40° C./75%0 RH for 6 months. A purity of Compound 1.002 on month 0, 1, 3, and 6 month at 40° C./75% RH was determined by HPLC. The detected impurity of Compound 1.002 appears to be the hydrolysis product, as MTPP. Table 21 represents stability data of Compound 1.002 in the topical formulation having 1000 oleic acid. […]
as §1, with “Lablabo Amcor Foil 18 mL containers” for “HPLC glass vials”, “C./75%” for “C./75%0”, “3, 4, 5,” for “3,”, “25” for “21”, “10%” for “1000”, “alcohol and 40% DPG.” for “acid.”

MTOR/FRAP1 = molecular target: T1, MTOR/FRAP1 (Homo sapiens, UniProt P42345); test: Lipid kinase inhibitory activity, ADP-Glo; type: biochemical
T1 construct: purchased Reaction Biology Corporation (RBC)
Experimental: (§2) Lipid kinases: Lipid kinases from Reaction Biology Corporation (RBC) in ADP-Glo format were used.
(§3) Assay Description: The kinase reactions utilized ATP and produced ADP as a byproduct. The ADP production was quantified by ADP-Glo luminescence detection. This assay was a 3-step reaction. First, the kinase reaction with lipid substrate was carried out in the presence of ATP, and the reaction was quenched and depleted remaining ATP with ADP-Glo™ reagent, and then finally ADP was converted to ATP which was measured using a luciferase/luciferin reaction.
(§4) Assay Procedure: The assay was performed according to the steps as follows: • 1. Preparing substrate in freshly prepared reaction buffer; • 2. Delivering kinase into the substrate solution and gently mixing; • 3. Delivering compounds in […] into the kinase reaction mixture by Acoustic technology (Echo550; nanoliter range), incubating for 20 minutes at room temperature; • 4. Delivering ATP into the reaction mixture to initiate the reaction; • 5. Incubating for 30 minutes at 30° C.; • 6. Quenching the reaction with ADP-Glo reagent and incubating for 40 minutes; • 7. Adding Detection Mixture and incubating for 30 minutes; and • 8. Measuring luminescence.
(§5) Data Analysis: The luminescence was converted into μM ADP production based on ADP standard curves. The nonlinear regression to obtain the standard curve and IC50 values were performed using Graphpad Prism software.

PI3K (p110a(E542K)/p85a) = molecular target: T2, PI3K (p110a(E542K)/p85a) (Homo sapiens, UniProt P42336, E542K); test: Lipid kinase inhibitory activity, ADP-Glo; type: biochemical; conditions: α E542K
T2 construct: purchased Reaction Biology Corporation (RBC)
T2 sequence (P42336 whole entry E542K): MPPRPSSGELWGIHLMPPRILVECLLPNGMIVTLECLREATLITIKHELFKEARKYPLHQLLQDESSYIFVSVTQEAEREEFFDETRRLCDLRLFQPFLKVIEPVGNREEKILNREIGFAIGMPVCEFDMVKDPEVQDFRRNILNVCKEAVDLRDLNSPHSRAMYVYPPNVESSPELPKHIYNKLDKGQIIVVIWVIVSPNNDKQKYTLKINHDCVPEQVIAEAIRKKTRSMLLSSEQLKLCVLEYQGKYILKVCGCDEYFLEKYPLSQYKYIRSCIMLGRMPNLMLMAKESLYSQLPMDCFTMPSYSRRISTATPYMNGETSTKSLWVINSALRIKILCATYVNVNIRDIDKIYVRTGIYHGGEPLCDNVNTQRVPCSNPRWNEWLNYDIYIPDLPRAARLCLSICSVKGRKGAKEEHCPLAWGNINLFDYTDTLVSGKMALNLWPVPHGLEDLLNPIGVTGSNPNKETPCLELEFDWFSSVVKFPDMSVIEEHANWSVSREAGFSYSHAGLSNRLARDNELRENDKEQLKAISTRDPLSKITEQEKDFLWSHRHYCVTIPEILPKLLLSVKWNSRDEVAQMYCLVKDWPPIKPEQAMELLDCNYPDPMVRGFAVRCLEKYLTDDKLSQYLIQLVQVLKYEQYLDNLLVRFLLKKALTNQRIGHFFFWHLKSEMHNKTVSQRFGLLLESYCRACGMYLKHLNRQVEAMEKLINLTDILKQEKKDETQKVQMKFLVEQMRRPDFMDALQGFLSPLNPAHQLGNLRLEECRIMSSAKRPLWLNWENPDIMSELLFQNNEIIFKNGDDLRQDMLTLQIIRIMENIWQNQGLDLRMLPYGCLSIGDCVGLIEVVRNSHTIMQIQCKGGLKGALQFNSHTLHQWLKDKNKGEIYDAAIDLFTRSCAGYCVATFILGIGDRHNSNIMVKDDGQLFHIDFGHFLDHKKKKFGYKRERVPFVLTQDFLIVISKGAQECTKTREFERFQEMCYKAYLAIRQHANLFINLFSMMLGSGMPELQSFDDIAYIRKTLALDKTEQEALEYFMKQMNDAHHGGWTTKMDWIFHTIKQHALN
T2 sequence (P27986 whole entry partner): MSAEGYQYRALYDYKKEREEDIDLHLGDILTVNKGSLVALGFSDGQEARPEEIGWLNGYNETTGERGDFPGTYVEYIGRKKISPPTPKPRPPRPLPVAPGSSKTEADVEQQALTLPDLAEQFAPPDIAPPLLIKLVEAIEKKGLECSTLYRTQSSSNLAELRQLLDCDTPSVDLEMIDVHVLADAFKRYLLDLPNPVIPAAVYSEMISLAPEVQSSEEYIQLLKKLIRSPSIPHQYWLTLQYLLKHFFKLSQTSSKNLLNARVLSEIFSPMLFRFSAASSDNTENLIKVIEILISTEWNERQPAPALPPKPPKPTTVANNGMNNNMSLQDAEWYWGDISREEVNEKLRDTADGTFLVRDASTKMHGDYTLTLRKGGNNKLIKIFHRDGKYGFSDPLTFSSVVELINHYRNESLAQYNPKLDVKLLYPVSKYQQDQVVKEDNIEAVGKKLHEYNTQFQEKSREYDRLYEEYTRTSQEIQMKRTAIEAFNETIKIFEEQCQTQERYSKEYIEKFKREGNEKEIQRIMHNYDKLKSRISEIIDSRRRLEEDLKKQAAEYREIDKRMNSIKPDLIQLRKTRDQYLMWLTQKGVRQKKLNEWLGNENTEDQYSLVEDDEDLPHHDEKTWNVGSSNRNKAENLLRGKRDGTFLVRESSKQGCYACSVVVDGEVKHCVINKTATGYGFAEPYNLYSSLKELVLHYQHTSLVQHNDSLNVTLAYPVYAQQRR
Experimental: as §2, §3, §4, §5

PI3K (p110a(E545K)/p85a) = molecular target: T3, PI3K (p110a(E545K)/p85a) (Homo sapiens, UniProt P42336, E545K); test: Lipid kinase inhibitory activity, ADP-Glo; type: biochemical; conditions: α E545K
T3 construct: purchased Reaction Biology Corporation (RBC)
T3 sequence (P42336 whole entry E545K): as the sequence (P42336 whole entry E542K) above, with K542E, E545K counted along it
T3 sequence (P27986 whole entry partner): as the sequence (P27986 whole entry partner) above
Experimental: as §2, §3, §4, §5

[2] = molecular target: T4, PI3K (p110a(H1047R)/p85a) (Homo sapiens, UniProt P42336, H1047R); test: Lipid kinase inhibitory activity, ADP-Glo; type: biochemical; conditions: α H1047R
T4 construct: purchased Reaction Biology Corporation (RBC)
T4 sequence (P42336 whole entry H1047R): as the sequence (P42336 whole entry E542K) above, with K542E, H1047R counted along it
T4 sequence (P27986 whole entry partner): as the sequence (P27986 whole entry partner) above
Experimental: as §2, §3, §4, §5

PI3Ka (p110a/p85a) = molecular target: T5, PI3Ka (p110a/p85a) (Homo sapiens, UniProt P42336); test: Lipid kinase inhibitory activity, ADP-Glo; type: biochemical; conditions: α
T5 construct: purchased Reaction Biology Corporation (RBC)
T5 sequence (P42336 whole entry): as the sequence (P42336 whole entry E542K) above, with K542E counted along it
T5 sequence (P27986 whole entry partner): as the sequence (P27986 whole entry partner) above
Experimental: as §2, §3, §4, §5

PI3Kb (p110b/p85a) = molecular target: T6, PI3Kb (p110b/p85a) (Homo sapiens, UniProt P42338); test: Lipid kinase inhibitory activity, ADP-Glo; type: biochemical; conditions: β
T6 construct: purchased Reaction Biology Corporation (RBC)
Experimental: as §2, §3, §4, §5

PI3Kd (p110d/p85a) = molecular target: T7, PI3Kd (p110d/p85a) (Homo sapiens, UniProt O00329); test: Lipid kinase inhibitory activity, ADP-Glo; type: biochemical; conditions: δ
T7 construct: purchased Reaction Biology Corporation (RBC)
T7 sequence (O00329 whole entry): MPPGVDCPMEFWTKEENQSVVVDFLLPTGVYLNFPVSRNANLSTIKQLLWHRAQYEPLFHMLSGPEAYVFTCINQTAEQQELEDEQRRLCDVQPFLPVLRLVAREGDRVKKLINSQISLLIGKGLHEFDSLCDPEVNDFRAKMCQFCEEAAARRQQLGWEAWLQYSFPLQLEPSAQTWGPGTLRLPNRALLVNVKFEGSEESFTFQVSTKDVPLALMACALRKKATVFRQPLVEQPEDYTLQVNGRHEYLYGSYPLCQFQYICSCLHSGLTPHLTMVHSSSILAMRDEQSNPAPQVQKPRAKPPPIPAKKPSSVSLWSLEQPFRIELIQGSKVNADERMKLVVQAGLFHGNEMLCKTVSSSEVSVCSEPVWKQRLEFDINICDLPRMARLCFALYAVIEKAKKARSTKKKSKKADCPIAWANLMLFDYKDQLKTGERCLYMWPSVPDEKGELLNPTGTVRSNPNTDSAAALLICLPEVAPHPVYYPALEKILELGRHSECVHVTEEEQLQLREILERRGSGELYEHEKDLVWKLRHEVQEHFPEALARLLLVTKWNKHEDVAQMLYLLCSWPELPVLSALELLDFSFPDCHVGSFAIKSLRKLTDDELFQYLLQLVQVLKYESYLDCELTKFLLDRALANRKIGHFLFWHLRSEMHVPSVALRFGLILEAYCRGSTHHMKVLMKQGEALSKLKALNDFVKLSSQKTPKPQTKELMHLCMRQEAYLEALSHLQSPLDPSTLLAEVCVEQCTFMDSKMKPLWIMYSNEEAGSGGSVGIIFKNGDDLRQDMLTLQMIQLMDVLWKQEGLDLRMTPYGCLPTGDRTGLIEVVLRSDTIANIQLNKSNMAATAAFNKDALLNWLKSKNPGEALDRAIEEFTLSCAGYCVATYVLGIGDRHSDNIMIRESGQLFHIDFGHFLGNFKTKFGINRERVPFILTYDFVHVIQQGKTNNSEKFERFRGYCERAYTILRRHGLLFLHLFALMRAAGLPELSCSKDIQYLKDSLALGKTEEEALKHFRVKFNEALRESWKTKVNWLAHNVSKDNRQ
T7 sequence (P27986 whole entry partner): as the sequence (P27986 whole entry partner) above
Experimental: as §2, §3, §4, §5

PI3Kg (p110g) = molecular target: T8, PI3Kg (p110g) (Homo sapiens, UniProt P48736); test: Lipid kinase inhibitory activity, ADP-Glo; type: biochemical; conditions: γ
T8 construct: purchased Reaction Biology Corporation (RBC)
T8 sequence (P48736 whole entry): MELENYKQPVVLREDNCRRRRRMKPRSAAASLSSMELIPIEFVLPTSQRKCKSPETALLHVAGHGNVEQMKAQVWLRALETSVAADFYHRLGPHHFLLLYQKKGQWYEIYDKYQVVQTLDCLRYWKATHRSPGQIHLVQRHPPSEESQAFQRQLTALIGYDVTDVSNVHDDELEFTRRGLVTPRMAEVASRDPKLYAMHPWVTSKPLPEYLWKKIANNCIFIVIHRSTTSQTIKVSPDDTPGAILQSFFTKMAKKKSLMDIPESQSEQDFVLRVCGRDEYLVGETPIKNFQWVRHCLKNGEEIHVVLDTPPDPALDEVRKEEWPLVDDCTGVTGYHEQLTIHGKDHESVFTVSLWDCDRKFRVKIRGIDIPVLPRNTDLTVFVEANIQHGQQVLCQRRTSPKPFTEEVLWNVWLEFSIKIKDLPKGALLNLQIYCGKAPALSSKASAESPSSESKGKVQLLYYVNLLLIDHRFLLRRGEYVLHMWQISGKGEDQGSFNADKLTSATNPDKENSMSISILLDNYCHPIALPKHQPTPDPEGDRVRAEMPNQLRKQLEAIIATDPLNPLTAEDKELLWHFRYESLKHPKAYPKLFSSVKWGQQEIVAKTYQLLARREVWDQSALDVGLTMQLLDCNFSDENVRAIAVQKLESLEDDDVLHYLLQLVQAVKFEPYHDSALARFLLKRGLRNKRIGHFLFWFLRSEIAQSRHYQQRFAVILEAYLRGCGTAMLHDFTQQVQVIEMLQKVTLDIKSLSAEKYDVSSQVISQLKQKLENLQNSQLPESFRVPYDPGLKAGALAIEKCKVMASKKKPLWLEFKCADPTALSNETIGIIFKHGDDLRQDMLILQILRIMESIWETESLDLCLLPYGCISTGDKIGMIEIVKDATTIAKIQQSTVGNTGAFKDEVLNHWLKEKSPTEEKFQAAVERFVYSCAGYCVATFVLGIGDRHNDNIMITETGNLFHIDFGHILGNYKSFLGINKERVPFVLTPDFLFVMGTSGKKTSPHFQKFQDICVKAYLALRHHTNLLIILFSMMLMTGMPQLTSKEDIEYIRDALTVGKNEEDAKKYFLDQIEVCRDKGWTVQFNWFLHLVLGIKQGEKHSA
Experimental: as §2, §3, §4, §5

[3] = Table 20 gel (10% oleic acid, DPG), HPLC glass vials, month 0
[4] = Table 20 gel (10% oleic acid, DPG), HPLC glass vials, month 1
[5] = Table 20 gel (10% oleic acid, DPG), HPLC glass vials, month 3
[6] = Table 20 gel (10% oleic acid, DPG), HPLC glass vials, month 6
[7] = Table 24 gel (10% oleyl alcohol, 40% DPG), Lablabo Amcor Foil 18 mL containers, month 0
[8] = Table 24 gel (10% oleyl alcohol, 40% DPG), Lablabo Amcor Foil 18 mL containers, month 1
[9] = Table 24 gel (10% oleyl alcohol, 40% DPG), Lablabo Amcor Foil 18 mL containers, month 3
[10] = Table 24 gel (10% oleyl alcohol, 40% DPG), Lablabo Amcor Foil 18 mL containers, month 4
[11] = Table 24 gel (10% oleyl alcohol, 40% DPG), Lablabo Amcor Foil 18 mL containers, month 5
[12] = Table 24 gel (10% oleyl alcohol, 40% DPG), Lablabo Amcor Foil 18 mL containers, month 6

Appearance [1, 3]: Clear,; also recorded: no crystals
Compound 1.002 Relative Purity [1, 3]: 100.0%
Compound 1.002 content [1, 3]: 106.6 mg/mL
MTPP (Relative Purity) [1, 3]: 0.0%
Other impurity (Relative Purity) [1, 3]: 0.0%
Viscosity [1, 3]: 11,800 cP
Appearance [1, 4]: Clear,; also recorded: no crystals
Compound 1.002 Relative Purity [1, 4]: 98.4%
Compound 1.002 content [1, 4]: 106.0 mg/mL
MTPP (Relative Purity) [1, 4]: 1.2%
Other impurity (Relative Purity) [1, 4]: 0.4%
Viscosity [1, 4]: 12,600 cP
Appearance [1, 5]: Clear,; also recorded: no crystals
Compound 1.002 Relative Purity [1, 5]: 97.5%
Compound 1.002 content [1, 5]: 107.0 mg/mL
MTPP (Relative Purity) [1, 5]: 2.5%
Other impurity (Relative Purity) [1, 5]: 0.0%
Viscosity [1, 5]: 11,780 cP
Appearance [1, 6]: Clear,; also recorded: no crystals
Compound 1.002 Relative Purity [1, 6]: 95.1%
Compound 1.002 content [1, 6]: 109.1 mg/mL
MTPP (Relative Purity) [1, 6]: 4.9%
Other impurity (Relative Purity) [1, 6]: 0.0%
Viscosity [1, 6]: 12,760 cP
Compound 1.002 Relative Purity [1, 7]: 100%
Compound 1.002 content [1, 7]: 65.9 mg/mL
MTPP (Relative Purity) [1, 7]: 0.0%
Visual Appearance [1, 7]: no crystals
Compound 1.002 Relative Purity [1, 8]: 98.9%
Compound 1.002 content [1, 8]: 66.5 mg/mL
MTPP (Relative Purity) [1, 8]: 1.1%
Visual Appearance [1, 8]: no crystals
Compound 1.002 Relative Purity [1, 9]: 99.0%
Compound 1.002 content [1, 9]: 65.9 mg/mL
MTPP (Relative Purity) [1, 9]: 1.0%
Visual Appearance [1, 9]: no crystals
Compound 1.002 Relative Purity [1, 10]: 97.0%
Compound 1.002 content [1, 10]: 66.5 mg/mL
MTPP (Relative Purity) [1, 10]: 3.0%
Visual Appearance [1, 10]: no crystals
Compound 1.002 Relative Purity [1, 11]: 97.3%
Compound 1.002 content [1, 11]: 67.8 mg/mL
MTPP (Relative Purity) [1, 11]: 2.7%
Visual Appearance [1, 11]: no crystals
Compound 1.002 Relative Purity [1, 12]: 90.0%
Compound 1.002 content [1, 12]: 51.1 mg/mL
MTPP (Relative Purity) [1, 12]: 10.0%
Visual Appearance [1, 12]: no crystals
IC50 (MTOR/FRAP1): 1410 nM
IC50 (PI3K (p110a(E542K)/p85a)): 42 nM
IC50 (PI3K (p110a(E545K)/p85a)): 49 nM
IC50 [2]: 59 nM
IC50 (PI3Ka (p110a/p85a)): 35 nM
IC50 (PI3Kb (p110b/p85a)): 257 nM
IC50 (PI3Kd (p110d/p85a)): 83 nM
IC50 (PI3Kg (p110g)): 544 nM
Compound: CC(=O)Oc1cccc(-c2nc(N3CCOCC3)c3sccc3n2)c1 [Compound 1.002, 3-(4-Morpholinothieno[3,2-d]pyrimidin-2-yl)phenyl Acetate]
